Results as given in ChEMBL document CHEMBL1201862, “PubChem BioAssay data set” (2004).
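Grown in 96-well plates, cells were treated for 48 hours with each compound at five concentrations. Insufficient inhibition: endpoint recorded as highest concentration tested. At the GI50, growth is halved.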 Active and inactive are the calls of the source. No stated cut-off is given here; in the data, active = GI50 up to about 1.1 µM and inactive = higher.

Tests used:
Assay in all cases: NCI tumour cell line growth inhibition, 48 h
SNB-75 = test system: SNB-75
OVCAR-4 = test system: OVCAR-4
UACC-257 = test system: UACC-257
UACC-62 = test system: UACC-62
T47D = test system: T47D
K562 = test system: K562
Malme-3M = test system: Malme-3M
HOP-92 = test system: HOP-92
SK-MEL-28 = test system: SK-MEL-28
M14 = test system: M14
NCI-H522 = test system: NCI-H522
HL-60 = test system: HL-60
NCI-H226 = test system: NCI-H226
NCI/ADR-RES = test system: NCI/ADR-RES
MCF7 = test system: MCF7
SK-MEL-5 = test system: SK-MEL-5
MDA-N = test system: MDA-N
MDA-MB-435 = test system: MDA-MB-435
CAKI-1 = test system: CAKI-1
COLO 205 = test system: COLO 205
IGROV-1 = test system: IGROV-1
LOX IMVI = test system: LOX IMVI
MDA-MB-231 = test system: MDA-MB-231
EKVX = test system: EKVX
RXF 393 = test system: RXF 393
OVCAR-3 = test system: OVCAR-3
A498 = test system: A498
BT-549 = test system: BT-549
A549 = test system: A549
HT-29 = test system: HT-29
KM12 = test system: KM12
Hs-578T = test system: Hs-578T
786-0 = test system: 786-0
SR = test system: SR
PC-3 = test system: PC-3
UO-31 = test system: UO-31
SF-268 = test system: SF-268
OVCAR-5 = test system: OVCAR-5
ACHN = test system: ACHN
HOP-62 = test system: HOP-62
NCI-H460 = test system: NCI-H460
HCT-15 = test system: HCT-15
SN12C = test system: SN12C
TK-10 = test system: TK-10
OVCAR-8 = test system: OVCAR-8
HCC 2998 = test system: HCC 2998
NCI-H23 = test system: NCI-H23
HCT-116 = test system: HCT-116
SF-539 = test system: SF-539
MOLT-4 = test system: MOLT-4
SW-620 = test system: SW-620
U-251 = test system: U-251
SF-295 = test system: SF-295
DU-145 = test system: DU-145
RPMI-8226 = test system: RPMI-8226
SK-MEL-2 = test system: SK-MEL-2
SNB-19 = test system: SNB-19
SK-OV-3 = test system: SK-OV-3

## COc1ccc(CC2CCc3nc(N)nc(N)c3C2)cc1OC (centres undefined)
SNB-75
  GI50: 1.46 µM (inactive)
OVCAR-4
  GI50: > 43.3 µM (inactive)
UACC-257
  GI50: 15.3 µM (inactive)
UACC-62
  GI50: 0.0612 µM (active)
T47D
  GI50: 18.9 µM (inactive)
K562
  GI50: 18.3 µM (inactive)
Malme-3M
  GI50: 0.83 µM (active)
HOP-92
  GI50: 36 µM (inactive)
SK-MEL-28
  GI50: 36.4 µM (inactive)
M14
  GI50: 0.851 µM (active)
NCI-H522
  GI50: 0.489 µM (active)
HL-60
  GI50: 14.8 µM (inactive)
NCI-H226
  GI50: 12.1 µM (inactive)
NCI/ADR-RES
  GI50: 1.29 µM (inactive)
MCF7
  GI50: 1.15 µM (inactive)
SK-MEL-5
  GI50: 0.4 µM (active)
MDA-N
  GI50: 0.0507 µM (active)
MDA-MB-435
  GI50: 1.41 µM (inactive)
CAKI-1
  GI50: 2.29 µM (inactive)
COLO 205
  GI50: 2.94 µM (inactive)
IGROV-1
  GI50: 0.11 µM (active)
LOX IMVI
  GI50: 0.065 µM (active)
MDA-MB-231
  GI50: 12.9 µM (inactive)
EKVX
  GI50: 2.01 µM (inactive)
RXF 393
  GI50: 0.0292 µM (active)
OVCAR-3
  GI50: 5.47 µM (inactive)
A498
  GI50: 17.3 µM (inactive)
BT-549
  GI50: 0.246 µM (active)
A549
  GI50: 0.0481 µM (active)
HT-29
  GI50: 1.79 µM (inactive)
KM12
  GI50: 1.28 µM (inactive)
Hs-578T
  GI50: > 56.1 µM (inactive)
786-0
  GI50: 0.0551 µM (active)
SR
  GI50: 3.7 µM (inactive)
PC-3
  GI50: 0.0716 µM (active)
UO-31
  GI50: 13.8 µM (inactive)
SF-268
  GI50: 0.173 µM (active)
OVCAR-5
  GI50: 1.51 µM (inactive)
ACHN
  GI50: 0.16 µM (active)
HOP-62
  GI50: 13.7 µM (inactive)
NCI-H460
  GI50: 0.0411 µM (active)
HCT-15
  GI50: 0.104 µM
SN12C
  GI50: 22.9 µM (inactive)
TK-10
  GI50: 7.6 µM (inactive)
OVCAR-8
  GI50: 14.6 µM (inactive)
HCC 2998
  GI50: 0.687 µM (active)
NCI-H23
  GI50: 0.564 µM (active)
HCT-116
  GI50: 0.0349 µM (active)
SF-539
  GI50: 2.25 µM (inactive)
MOLT-4
  GI50: 0.522 µM (active)
SW-620
  GI50: 6.03 µM (inactive)
U-251
  GI50: 38.6 µM (inactive)
SF-295
  GI50: 0.168 µM (active)
DU-145
  GI50: 0.681 µM (active)
RPMI-8226
  GI50: 13.1 µM (inactive)
SK-MEL-2
  GI50: > 57.3 µM (inactive)

## C=C[C@]1(C)C[C@@H](OC(=O)CO)[C@@]2(C)[C@H](C)CC[C@]3(CCC(=O)[C@H]32)[C@@H](C)[C@@H]1O
SNB-75
  GI50: > 74 µM (inactive)
OVCAR-4
  GI50: > 100 µM (inactive)
UACC-257
  GI50: > 76.6 µM (inactive)
UACC-62
  GI50: 7.59 µM (inactive)
T47D
  GI50: 99.5 µM (inactive)
K562
  GI50: 40 µM (inactive)
Malme-3M
  GI50: 83.4 µM (inactive)
HOP-92
  GI50: > 86.1 µM (inactive)
SK-MEL-28
  GI50: > 74.1 µM (inactive)
M14
  GI50: > 78.9 µM (inactive)
NCI-H522
  GI50: 67.9 µM (inactive)
HL-60
  GI50: 49.8 µM (inactive)
NCI-H226
  GI50: > 100 µM (inactive)
NCI/ADR-RES
  GI50: > 100 µM (inactive)
MCF7
  GI50: 21.5 µM (inactive)
SK-MEL-5
  GI50: > 89.5 µM (inactive)
MDA-N
  GI50: > 100 µM (inactive)
MDA-MB-435
  GI50: > 68.1 µM (inactive)
CAKI-1
  GI50: > 100 µM (inactive)
COLO 205
  GI50: > 100 µM (inactive)
IGROV-1
  GI50: > 91.2 µM (inactive)
LOX IMVI
  GI50: > 31.6 µM (inactive)
SNB-19
  GI50: > 100 µM (inactive)
MDA-MB-231
  GI50: > 100 µM (inactive)
EKVX
  GI50: > 100 µM (inactive)
RXF 393
  GI50: > 59 µM (inactive)
OVCAR-3
  GI50: > 60.1 µM (inactive)
A498
  GI50: > 54.6 µM (inactive)
BT-549
  GI50: > 61.4 µM (inactive)
A549
  GI50: > 100 µM (inactive)
HT-29
  GI50: > 100 µM (inactive)
KM12
  GI50: > 100 µM (inactive)
Hs-578T
  GI50: > 53.1 µM (inactive)
786-0
  GI50: > 100 µM (inactive)
SR
  GI50: > 43.4 µM (inactive)
PC-3
  GI50: > 55.2 µM (inactive)
UO-31
  GI50: > 63.5 µM (inactive)
SF-268
  GI50: > 83.2 µM (inactive)
OVCAR-5
  GI50: > 100 µM (inactive)
ACHN
  GI50: > 93.5 µM (inactive)
HOP-62
  GI50: 71.8 µM (inactive)
NCI-H460
  GI50: > 61.2 µM (inactive)
HCT-15
  GI50: > 94.8 µM
SN12C
  GI50: > 100 µM (inactive)
TK-10
  GI50: > 59.3 µM (inactive)
OVCAR-8
  GI50: > 100 µM (inactive)
HCC 2998
  GI50: 72.9 µM (inactive)
SK-OV-3
  GI50: > 100 µM (inactive)
NCI-H23
  GI50: > 70.1 µM (inactive)
HCT-116
  GI50: > 55.6 µM (inactive)
SF-539
  GI50: > 100 µM (inactive)
MOLT-4
  GI50: 37.5 µM (inactive)
SW-620
  GI50: > 82.2 µM (inactive)
U-251
  GI50: > 79.3 µM (inactive)
SF-295
  GI50: > 76.4 µM (inactive)
DU-145
  GI50: > 100 µM (inactive)
RPMI-8226
  GI50: 70.5 µM (inactive)
SK-MEL-2
  GI50: > 59.3 µM (inactive)
